Article PMC6526958 (Journal of medicinal chemistry, 2019)
“Also recorded” adds a separate entry of the source. Values belong to the molecule of their own block, whether it stands above or below them.

Columns and labels:
[1] = biological target: T1, recombinant soluble rat CD73 (Rattus norvegicus, UniProt P21588); test: radiometric CD73 assay with [2,8-3H]AMP, recombinant soluble rat CD73; type: biochemical; conditions: for fold less active than AOPCP: rat CD73 Ki relative to AOPCP
T1 sequence (P21588 29-551 limits assumed): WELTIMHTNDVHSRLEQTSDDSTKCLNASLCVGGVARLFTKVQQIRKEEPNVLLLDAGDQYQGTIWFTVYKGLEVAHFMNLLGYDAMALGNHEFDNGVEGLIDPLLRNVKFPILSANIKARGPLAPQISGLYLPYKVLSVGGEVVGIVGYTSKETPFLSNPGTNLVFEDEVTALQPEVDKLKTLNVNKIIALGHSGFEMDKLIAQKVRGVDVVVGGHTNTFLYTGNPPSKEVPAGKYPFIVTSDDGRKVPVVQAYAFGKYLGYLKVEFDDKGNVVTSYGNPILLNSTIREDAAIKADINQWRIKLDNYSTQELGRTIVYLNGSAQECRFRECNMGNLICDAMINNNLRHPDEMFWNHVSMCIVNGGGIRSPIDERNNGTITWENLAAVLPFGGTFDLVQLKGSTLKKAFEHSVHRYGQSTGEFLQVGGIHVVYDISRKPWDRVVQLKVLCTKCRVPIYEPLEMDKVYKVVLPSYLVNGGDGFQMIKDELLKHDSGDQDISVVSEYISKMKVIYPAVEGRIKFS

[2] = tested on: recombinant soluble human CD73; test: radiometric CD73 assay with [2,8-3H]AMP, recombinant soluble human CD73; type: biochemical; conditions: human versus rat CD73
CD73 = CD73 enzyme inhibition assay, control for the triethylammonium salt form; type: biochemical; conditions: 500 µM
human P2Y14 receptor = biological target: T2, human P2Y14 receptor (Homo sapiens, UniProt Q15391); test: fluorescent antagonist binding competition; conditions: 9h up to 3.0 µM
T2 sequence (Q15391 1-338): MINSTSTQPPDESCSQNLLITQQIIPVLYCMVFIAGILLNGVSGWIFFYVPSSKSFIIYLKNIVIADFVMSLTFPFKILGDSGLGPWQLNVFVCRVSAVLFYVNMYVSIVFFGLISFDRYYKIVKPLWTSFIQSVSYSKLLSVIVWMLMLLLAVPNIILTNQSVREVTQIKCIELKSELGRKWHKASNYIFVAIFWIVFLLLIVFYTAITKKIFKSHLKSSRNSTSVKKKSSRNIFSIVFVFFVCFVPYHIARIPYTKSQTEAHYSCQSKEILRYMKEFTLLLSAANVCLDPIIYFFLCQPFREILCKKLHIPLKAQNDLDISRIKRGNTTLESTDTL

human P2Y6 receptor = human P2Y6 receptor (Homo sapiens, UniProt Q15077); type: cell-based; conditions: 9h up to 3.0 µM
human P2Y6 receptor, sequence (Q15077 whole entry): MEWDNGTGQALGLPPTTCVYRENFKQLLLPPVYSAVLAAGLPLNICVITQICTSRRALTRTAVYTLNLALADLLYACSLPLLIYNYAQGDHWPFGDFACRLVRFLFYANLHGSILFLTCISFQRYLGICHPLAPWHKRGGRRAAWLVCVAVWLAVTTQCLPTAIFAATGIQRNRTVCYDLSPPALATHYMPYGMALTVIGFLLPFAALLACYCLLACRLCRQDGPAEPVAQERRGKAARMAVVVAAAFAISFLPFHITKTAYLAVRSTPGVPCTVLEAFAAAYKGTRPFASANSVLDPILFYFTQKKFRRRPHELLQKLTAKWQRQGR

eN/CD73 in human tonsils = biological target: T3, eN/CD73 in human tonsils (Homo sapiens, UniProt P21589); test: in situ ecto-5′-nucleotidase; type: biochemical; conditions: human tonsil cryosections
T3 sequence (P21589 27-574): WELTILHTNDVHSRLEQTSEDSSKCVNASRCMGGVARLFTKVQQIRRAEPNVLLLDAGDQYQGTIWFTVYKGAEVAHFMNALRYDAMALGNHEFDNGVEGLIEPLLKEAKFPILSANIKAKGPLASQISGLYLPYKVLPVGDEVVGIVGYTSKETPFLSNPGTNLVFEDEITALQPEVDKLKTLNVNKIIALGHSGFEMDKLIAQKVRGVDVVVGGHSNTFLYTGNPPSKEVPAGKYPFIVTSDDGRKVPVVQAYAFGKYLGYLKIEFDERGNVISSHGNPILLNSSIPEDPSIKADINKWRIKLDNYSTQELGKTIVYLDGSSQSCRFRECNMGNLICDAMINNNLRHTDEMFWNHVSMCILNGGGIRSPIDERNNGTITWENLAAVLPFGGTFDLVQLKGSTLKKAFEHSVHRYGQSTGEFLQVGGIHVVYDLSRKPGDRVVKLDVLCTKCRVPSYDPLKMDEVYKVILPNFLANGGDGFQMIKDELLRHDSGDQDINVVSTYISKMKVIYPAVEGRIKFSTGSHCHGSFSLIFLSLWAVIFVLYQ

[3] = biological target: T4, membrane-bound CD73 (MDA-MB-231 membrane preparation) (Homo sapiens, UniProt P21589); test: radiometric CD73 assay, membrane preparations of MDA-MB-231 cells; type: biochemical
T4 sequence (P21589 27-574): T3 sequence (P21589 27-574)

[4] = biological target: T5, recombinant soluble human CD73 (Homo sapiens, UniProt P21589); test: radiometric CD73 assay with [2,8-3H]AMP, recombinant soluble human CD73; type: biochemical
T5 sequence (P21589 28-549): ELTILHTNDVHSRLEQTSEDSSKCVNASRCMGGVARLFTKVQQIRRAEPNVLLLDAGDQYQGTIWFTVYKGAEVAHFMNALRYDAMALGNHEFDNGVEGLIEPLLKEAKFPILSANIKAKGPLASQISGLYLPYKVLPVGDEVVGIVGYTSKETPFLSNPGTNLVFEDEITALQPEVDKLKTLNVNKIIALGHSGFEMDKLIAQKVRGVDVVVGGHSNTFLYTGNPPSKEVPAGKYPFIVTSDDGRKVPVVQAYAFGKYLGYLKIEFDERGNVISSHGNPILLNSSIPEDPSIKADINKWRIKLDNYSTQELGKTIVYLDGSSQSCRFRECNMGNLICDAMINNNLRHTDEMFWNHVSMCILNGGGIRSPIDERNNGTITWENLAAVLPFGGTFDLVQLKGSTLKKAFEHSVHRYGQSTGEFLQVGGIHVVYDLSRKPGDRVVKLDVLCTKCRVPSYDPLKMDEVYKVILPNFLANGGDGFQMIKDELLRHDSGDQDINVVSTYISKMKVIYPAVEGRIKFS

[5] = stability in aqueous solution; type: physicochemical; conditions: room temperature

- CD73 inhibitory activity (in words) ([1]; rat CD73): complete loss of CD73 inhibition
SMILES: Cc1cn([C@@H]2O[C@H](COP(=O)(O)CCP(=O)(O)O)[C@@H](O)[C@H]2O)c(=O)[nH]c1=O [4x, 5-Methyluridine-5′-O-[(phosphonoethyl)phosphonic acid]]

- CD73 inhibitory activity (in words) ([1]; rat CD73): inactive
SMILES: Nc1ccnc2c1ncn2[C@@H]1O[C@H](COP(=O)(O)CP(=O)(O)O)[C@@H](O)[C@H]1O [2e, 1-Deazaadenosine-5′-O-[(phosphonomethyl)phosphonic acid]]

- CD73 inhibitory activity (in words) ([1]; rat CD73): inactive
SMILES: CCn1c(=O)ccn([C@@H]2O[C@H](COP(=O)(O)CP(=O)(O)O)[C@@H](O)[C@H]2O)c1=O [4c, 3-Ethyluridine-5′-O-[(phosphonomethyl)phosphonic acid]]

- fold more potent at human CD73 as compared to the rat enzyme [2]: 2 to 3 fold
SMILES: O=c1[nH]/c(=N/OCc2ccc3ccccc3c2)ccn1[C@@H]1O[C@H](COP(=O)(O)CP(=O)(O)O)[C@@H](O)[C@H]1O [9e, N^4-[O-(Naphthalen-2-ylmethoxy)]-cytidine-5′-O-[(phosphonomethyl)phosphonic acid]]

SMILES: O=c1ccn([C@@H]2O[C@H](COP(=O)(O)CP(=O)(O)O)[C@@H](O)[C@H]2O)c(=S)[nH]1 [4y, 2-Thiouridine-5′-O-[(phosphonomethyl)phosphonic acid]]
- CD73 inhibitory activity (in words) ([1]; rat CD73): not tolerated

- fold less active than AOPCP [1]: 5 fold
SMILES: Nc1ccn([C@@H]2O[C@H](COP(=O)(O)CP(=O)(O)O)[C@@H](O)[C@H]2O)c(=O)n1 [7a, Cytidine-5′-O-[(phosphonomethyl)phosphonic acid]]

- CD73 inhibitory activity (in words) ([1]; rat CD73): inactive
SMILES: CCCn1c(=O)ccn([C@@H]2O[C@H](COP(=O)(O)CP(=O)(O)O)[C@@H](O)[C@H]2O)c1=O [4d, 3-Propyluridine-5′-O-[(phosphonomethyl)phosphonic acid]]

SMILES: CCN(CC)CC.Cl [triethylammonium chloride]
- reduction of CD73 enzymatic activity (CD73): no reduction of enzymatic activity was detected

- potency at P2Y14 receptor (in words) (human P2Y14 receptor): completely inactive
- potency at P2Y6 receptor (in words) (human P2Y6 receptor): completely inactive
- reversibility of CD73 inhibition (eN/CD73 in human tonsils): highly reversible CD73 inhibitor
SMILES: Cn1c(=O)n([C@@H]2O[C@H](COP(=O)(O)CP(=O)(O)O)[C@@H](O)[C@H]2O)cc/c1=N/OCc1ccccc1 [9h, N^4-[O-(4-Benzyloxy)]-3-methyl-cytidine-5′-O-[(phosphonomethyl)phosphonic acid]]
- inhibition of CD73 catalytic (AMPase) activity in situ (eN/CD73 in human tonsils; 1, 10 and 100 nM, 100 µM AMP): inhibited catalytic activity of CD73 in a concentration-dependent manner, in situ more potently than AOPCP

- fold higher CD73 inhibitory activity compared to AOPCP ([1]; rat CD73): 2 fold
SMILES: Nc1ncnc2c1ccn2[C@@H]1O[C@H](COP(=O)(O)CP(=O)(O)O)[C@@H](O)[C@H]1O [2g, 7-Deazaadenosine-5′-O-[(phosphonomethyl)phosphonic acid]]

- CD73 inhibitory activity (in words) ([1]; rat CD73): complete loss of CD73 inhibition
SMILES: O=c1ccn([C@@H]2O[C@H](COP(=O)(O)CCP(=O)(O)O)[C@@H](O)[C@H]2O)c(=O)[nH]1 [4w, Uridine-5′-O-[(phosphonoethyl)phosphonic acid]]

- CD73 inhibitory activity (in words) ([1]; rat CD73): inactive
SMILES: O=c1cc(O)ccn1[C@@H]1O[C@H](COP(=O)(O)CP(=O)(O)O)[C@@H](O)[C@H]1O [compound 10, 3-Deazauridine-5′-O-[(phosphonomethyl)phosphonic acid]]

- CD73 inhibitory activity (in words) ([1]; rat CD73): inactive
SMILES: Nc1nccc2c1ncn2[C@@H]1O[C@H](COP(=O)(O)CP(=O)(O)O)[C@@H](O)[C@H]1O [2f, 3-Deazaadenosine-5′-O-[(phosphonomethyl)phosphonic acid]]

- fold more potent at human CD73 as compared to the rat enzyme [2]: 5 fold
SMILES: O=c1[nH]/c(=N/OCc2ccccc2)c(F)cn1[C@@H]1O[C@H](COP(=O)(O)CP(=O)(O)O)[C@@H](O)[C@H]1O [9g, N^4-[O-(4-Benzyloxy)]-5-fluoro-cytidine-5′-O-[(phosphonomethyl)phosphonic acid]]

- fold more potent at human CD73 as compared to the rat enzyme [2]: 2 to 3 fold
SMILES: O=c1[nH]c(=O)n([C@@H]2O[C@H](COP(=O)(O)CP(=O)(O)O)[C@@H](O)[C@H]2O)cc1F [4l, 5-Fluorouridine-5′-O-[(phosphonomethyl)phosphonic acid]]

- Ki [3]: 10.1 ± 1.4 nM
- Ki [1]: 30.3 ± 4.2 nM
- Ki [4]: 14 ± 1.6 nM
- fold more potent at human CD73 as compared to the rat enzyme [2]: 2 to 3 fold
SMILES: O=c1[nH]c(=NOCc2ccc(C(F)(F)F)cc2)ccn1[C@@H]1O[C@H](COP(=O)(O)CP(=O)(O)O)[C@@H](O)[C@H]1O [9d, N^4-[O-(4-Trifluoromethylbenzyloxy)]-cytidine-5′-O-[(phosphonomethyl)phosphonic acid]]

SMILES: O=C(Nc1ccn([C@@H]2O[C@H](COP(=O)(O)CP(=O)(O)O)[C@@H](O)[C@H]2O)c(=O)n1)c1ccccc1 [7f, 4-Benzoylcytidine-5′-O-[(phosphonomethyl)phosphonic acid]]
- potency at P2Y14 receptor (in words) (human P2Y14 receptor): potencies in the micromolar range
- potency at P2Y6 receptor (in words) (human P2Y6 receptor): potencies in the micromolar range
- stability in aqueous solution [5]: gradual decomposition when left at room temperature over several weeks in aqueous solution to UOPCP (4a) and COPCP (7a); also recorded: decomposition of compound 7f to UOPCP
- fold more potent at human CD73 as compared to the rat enzyme [2]: 2 to 3 fold

- CD73 inhibitory activity (in words) ([1]; rat CD73): inactive
SMILES: O=c1ccn([C@@H]2O[C@H](COP(=O)(O)CP(=O)(O)O)[C@@H](O)[C@H]2O)c(=O)n1Cc1ccccc1 [4e, 3-Benzyluridine-5′-O-[(phosphonomethyl)phosphonic acid]]

SMILES: CCOP(=O)(O)OP(=O)(O)OC[C@H]1O[C@@H](n2ccc(=O)[nH]c2=S)[C@H](O)[C@@H]1O [compound 12]
- CD73 inhibitory activity (in words) ([1]; rat CD73): inactive

- CD73 inhibitory activity (in words) ([1]; rat CD73): inactive
SMILES: CO[C@@H]1[C@H](O)[C@@H](COP(=O)(O)CP(=O)(O)O)O[C@H]1n1cc(C)c(=O)[nH]c1=O [4h, 2′-O-Methyl-5-methyluridine-5′-O-[(phosphonomethyl)phosphonic acid]]

- Km ([1]; read-out: Km, rat CD73, substrate AMP): 53 ± 4.1 µM
SMILES: Nc1ncnc2c1ncn2[C@@H]1O[C@H](COP(=O)(O)O)[C@@H](O)[C@H]1O [AMP, adenosine 5′-monophosphate]

- fold less active than AOPCP [1]: 11 fold
SMILES: O=c1ccn([C@@H]2O[C@H](COP(=O)(O)CP(=O)(O)O)[C@@H](O)[C@H]2O)c(=O)[nH]1 [4a, Uridine-5′-O-[(phosphonomethyl)phosphonic acid]]

- CD73 inhibitory activity (in words) ([1]; rat CD73): inactive
SMILES: O=c1ccn([C@@]23C[C@H]2[C@H](COP(=O)(O)CP(=O)(O)O)[C@@H](O)[C@H]3O)c(=O)[nH]1 [compound 11, (S)-Methanocarbauridine-5′-O-[(phosphonomethyl)phosphonic acid]]
